# Test results published in patent US20050013914A1, “Method of sustaining aroma and use thereof” (priority 2001, published 2005).
# Like-named read-outs stand apart in the source and are kept apart here.
# Legend:
# Type in all cases: physicochemical
# [1] = Adsorption of aromatic substances on CTS crystalline anhydrate (Example C-3)
# Protocol: The following explains the experimental method in detail. […] The amount of the adsorbed aromatic substances was calculated by measuring the weight of the resulting powders and subtracting their starting powder weight (4 g).
# [2] = Adsorption and 10-day retention of lavender oil, citronellol or phenethyl alcohol on saccharides (Example C-4); conditions: for Amount of the Adsorbed Substance: freshly prepared sample; for Relative Amount of the Retained Substance: preserved at 25° C. for 10 days vs freshly prepared
# Excerpt: The following example is a test to confirm the effect of CTS crystalline hydrate, CTS crystalline anhydrate, or CTS amorphous anhydrate on retaining, as an aromatic substance, lavender oil, citronellol, or phenethyl alcohol. CTS crystalline pentahydrate prepared by the method described in Example B-3, CTS crystalline anhydrate in Example B-5, and CTS amorphous anhydrate in Example B-6 were used as the test saccharides “ISOELEAT P®”, a branched cyclodextrin commercialized by Maruha Corporation, Tokyo, Japan, was used as a control.
# In the case of lavender oil, five parts by weight of each of the above saccharides were taken into a glass dish sized 90 mm in diameter and 20 mm in depth, admixed with one part by weight of lavender oil by stirring. Lavender oil was measured by the method described as follows; admixing 2 ml of diethyl ether with 1 g of each of the above samples freshly prepared or after preserved at 25° C. for 10 days; measuring the extracted lavender oil by gas chromatography using “GC-14B” (a gas chromatography commercialized by Shimazu corporation, Kyoto, Japan) equipped with “TC-Wax” (a capillary column sized 0.53 mm in diameter and 25 m in length commercialized by GL Sciences Inc., Tokyo, Japan.
# In the case of citronellol or phenethyl alcohol, five parts by weight of each of the above saccharides were taken into a glass dish sized 90 mm in diameter and 20 mm in depth, admixed with one part by weight of citronellol or phenethyl alcohol, and mixed by stirring. The adsorbed citronellol or phenethyl alcohol was measured by admixing 2 ml of diethyl ether with 1 g of each of the above sample freshly prepared or after preserved at 25° C. for 10 days, and measuring the extracted lavender oil by gas chromatography using “GC-14B” (a gas chromatography device commercialized by Shimazu corporation, Kyoto, Japan) equipped with “DB-5” (a capillary column sized 0.25 mm in diameter and 30 m in length commercialized by GL Sciences Inc., Tokyo, Japan).
# The amount of the retained aromatic substance in each sample was calculated using the following formula, and the results were shown in Table 4.
# Formula: Relative amount of the retained Substance (%)={(an amount of aromatic substance in a sample preserved for 10 days)/(an amount of aromatic substance in a freshly prepared sample)}×100
# [3] = Adsorption of liquid ethanol or acetic acid on saccharide powder (Example C-1); conditions: until mixture did not keep a powder form; for Amount of Adsorbed Acetic Acid: acetic acid adsorbed on 1 g of saccharide; for Amount of Adsorbed Ethanol: ethanol adsorbed on 1 g of saccharide
# Excerpt: CTS crystalline pentahydrate, prepared by the method described in Example B-3, CTS crystalline monohydrate, prepared by the method described in Example B-4, CTS crystalline anhydrate, prepared by the method described in Example B-5, or CTS amorphous anhydrate prepared by the method described in Example B-6, was used for preparation of aroma-retaining material. “ISOELEAT P™”, a branched cyclodextrin commercialized by Maruha corporation, Tokyo, Japan, anhydrous trehalose prepared by the method described in Japanese Patent Kokai No. 111,284/97, “PINEFIBRE™”, a dextrin commercialized by Matsutani Chemical Industries Co., Ltd., Tokyo, Japan, or soluble starch in a reagent grade commercialized by Katayama Chemical Industries, Co., Ltd., Tokyo, Japan, was dried in vacuo at 80° C. for 16 hours as control saccharides. […] The resulting mixture was weighed. The weight of ethanol or acetic acid was calculated by subtracting the pre-measured saccharide weight. The weight of ethanol or acetic acid adsorbed on 1 g of each saccharide was in Table 1.
# [4] = aromatic substance adsorbed per 1 g of CTS crystalline anhydrate
# [5] = citronellol, listed as Sample 1
# [6] = lavender oil, listed as Sample 1
# [7] = phenethyl alcohol, listed as Sample 1
# [8] = citronellol, listed as Sample 3
# [9] = lavender oil, listed as Sample 3
# [10] = phenethyl alcohol, listed as Sample 3
compound,measurement,setting,value
Bornylacetate,Amount of Adsorbed Substance,[1]; [4],0.48 g
C=CC(C)(O)CCC=C(C)C (centres unmarked) [Linalool],Amount of Adsorbed Substance,[1]; [4],0.42 g
CC(C)=CCC/C(C)=C/CO [Geraniol],Amount of Adsorbed Substance,[1]; [4],0.32 g
NCCO [2-Aminoethanol],Amount of Adsorbed Substance,[1]; [4],0.13 g
OCC1OC2OCC3O[C@H](O[C@H]4C(O)C(CO)OC(OCC5O[C@H](O[C@@H](C1O)C2O)C(O)C(O)[C@@H]5O)C4O)C(O)C(O)[C@@H]3O (some centres unmarked) [CTS crystalline pentahydrate],Amount of the Adsorbed Substance,"[2]; citronellol, listed as CTS crystalline hydrate",155 mg/g saccharide
same,Amount of the Adsorbed Substance,[2]; [5],155 mg/g saccharide
same,Relative Amount of the Retained Substance,[2]; [5],30%
same,Amount of the Adsorbed Substance,"[2]; lavender oil, listed as CTS crystalline hydrate",150 mg/g saccharide
same,Amount of the Adsorbed Substance,[2]; [6],150 mg/g saccharide
same,Relative Amount of the Retained Substance,[2]; [6],1%
same,Amount of the Adsorbed Substance,"[2]; phenethyl alcohol, listed as CTS crystalline hydrate",140 mg/g saccharide
same,Amount of the Adsorbed Substance,[2]; [7],140 mg/g saccharide
same,Relative Amount of the Retained Substance,[2]; [7],3%
same,Amount of Adsorbed Acetic Acid,[3],0.27 g
same,Amount of Adsorbed Ethanol,[3],0.32 g
CCCCCC(=O)O [Capronic Acid],Amount of Adsorbed Substance,[1]; [4],0.47 g
c1ccccc1 [Benzene],Amount of Adsorbed Substance,[1]; [4],0.14 g
CCCCCO [1-Pentanol],Amount of Adsorbed Substance,[1]; [4],0.31 g
CC1=CCC2CC1C2(C)C (stereo not drawn) [α-Pinene],Amount of Adsorbed Substance,[1]; [4],0.35 g
CCCCC(=O)O [Valeric Acid],Amount of Adsorbed Substance,[1]; [4],0.47 g
1-Propanol,Amount of Adsorbed Substance,[1]; [4],0.46 g
CC1=CCC(C(C)(C)O)CC1 (stereo not drawn) [α-Terpineol],Amount of Adsorbed Substance,[1]; [4],0.33 g
CC(C)(C)O [2-Methyl-2-Propanol],Amount of Adsorbed Substance,[1],0.32 g
CC(C)O [2-Propanol],Amount of Adsorbed Substance,[1]; [4],0.48 g
OCCCc1ccccc1 [3-Phenyl-1-Propanol],Amount of Adsorbed Substance,[1]; [4],0.52 g
CCCC(=O)O [Butyric Acid],Amount of Adsorbed Substance,[1]; [4],0.55 g
CC1=CC=C(C(C)C)CC1 [α-Terpinene],Amount of Adsorbed Substance,[1]; [4],0.37 g
CC(C)=CCCC(C)CC=O (centres unmarked) [Citronellal],Amount of Adsorbed Substance,[1]; [4],0.46 g
OCCc1ccccc1 [Phenethyl Alcohol],Amount of Adsorbed Substance,[1]; [4],0.40 g
CC(=O)CC(C)(C)O [Diacetone Alcohol],Amount of Adsorbed Substance,[1]; [4],0.28 g
CCO [Ethanol],Amount of Adsorbed Substance,[1]; [4],0.50 g
CC(C)CO [2-Methyl-1-Propanol],Amount of Adsorbed Substance,[1]; [4],0.36 g
CC(C)C(=O)O [Isobutyric Acid],Amount of Adsorbed Substance,[1]; [4],0.51 g
C=C1CCC2CC1C2(C)C (stereo not drawn) [β-Pinene],Amount of Adsorbed Substance,[1]; [4],0.30 g
C=C(C)[C@H]1CC=C(C)CC1 [Limonene],Amount of Adsorbed Substance,[1]; [4],0.42 g
CO [Methanol],Amount of Adsorbed Substance,[1],0.61 g
3-Methyl-1-Propanol,Amount of Adsorbed Substance,[1]; [4],0.36 g
OCC1OC2OCC3O[C@H](O[C@H]4C(O)C(CO)OC(OCC5O[C@H](O[C@@H](C1O)C2O)C(O)C(O)[C@@H]5O)C4O)C(O)C(O)[C@@H]3O (some centres unmarked) [CTS crystalline monohydrate],Amount of Adsorbed Acetic Acid,[3],0.35 g
same,Amount of Adsorbed Ethanol,[3],0.45 g
COc1ccccc1O [o-Methoxyphenol],Amount of Adsorbed Substance,[1]; [4],0.42 g
C=CCN=C=S [Allylisothiocyanate],Amount of Adsorbed Substance,[1]; [4],0.37 g
OCc1ccccc1 [Benzyl Alcohol],Amount of Adsorbed Substance,[1]; [4],0.43 g
CCC(=O)O [Propionic Acid],Amount of Adsorbed Substance,[1]; [4],0.50 g
CC(=O)O [Acetic Acid],Amount of Adsorbed Substance,[1]; [4],0.47 g
CCCCCCCCO [1-Octanol],Amount of Adsorbed Substance,[1]; [4],0.28 g
OCC1OC2OCC3O[C@H](O[C@H]4C(O)C(CO)OC(OCC5O[C@H](O[C@@H](C1O)C2O)C(O)C(O)[C@@H]5O)C4O)C(O)C(O)[C@@H]3O (some centres unmarked) [CTS amorphous anhydrate],Adsorbing capability relative to branched cyclodextrin,[2]; citronellol,about 1.2 fold
same,Amount of the Adsorbed Substance,[2]; citronellol,190 mg/g saccharide
same,Amount of the Adsorbed Substance,[2]; [8],190 mg/g saccharide
same,Relative Amount of the Retained Substance,[2]; [8],40%
same,Adsorbing capacity relative to branched cyclodextrin,[2]; lavender oil,about 1.3 fold
same,Amount of the Adsorbed Substance,"[2]; lavender oil, listed as CTS amorphous anhydrte",185 mg/g saccharide
same,Amount of the Adsorbed Substance,[2]; [9],185 mg/g saccharide
same,Relative Amount of the Retained Substance,[2]; [9],8%
same,Amount of the Adsorbed Substance,[2]; phenethyl alcohol,180 mg/g saccharide
same,Amount of the Adsorbed Substance,[2]; [10],180 mg/g saccharide
same,Relative Amount of the Retained Substance,[2]; [10],12%
same,Amount of Adsorbed Acetic Acid,[3],0.47 g
same,Amount of Adsorbed Ethanol,[3],0.49 g
Cc1ccccc1 [Toluene],Amount of Adsorbed Substance,[1],0.29 g
CCCCCCCC(=O)O [Octanic Acid],Amount of Adsorbed Substance,[1]; [4],0.47 g
CCOCC [Diethyl Ether],Amount of Adsorbed Substance,[1],0.17 g
CC(C)c1cccc(=O)c(O)c1 [Hinokithiol],Amount of Adsorbed Substance,[1]; [4],0.29 g
ClCc1ccccc1 [Benzyl Chloride],Amount of Adsorbed Substance,[1]; [4],0.32 g
CCCCCCO [1-Hexanol],Amount of Adsorbed Substance,[1]; [4],0.41 g
"OCCCCO [1,4-Butanediol]",Amount of Adsorbed Substance,[1],0.28 g
CCCCCOC(C)=O [Pentylacetate],Amount of Adsorbed Substance,[1]; [4],0.46 g
CC(C)(C)N=C=S [t-Butylisothiocyanate],Amount of Adsorbed Substance,[1]; [4],0.36 g
O=CO [Formic Acid],Amount of Adsorbed Substance,[1],0.24 g
CC1=CCC(O)(C(C)C)CC1 (centres unmarked) [Terpinen-4-ol],Amount of Adsorbed Substance,[1]; [4],0.34 g
CC(C)=CCCC(C)CCO (centres unmarked) [Citronellol],Amount of Adsorbed Substance,[1]; [4],0.39 g
ClC(Cl)Cl [Chloroform],Amount of Adsorbed Substance,[1],0.32 g
